Consider 25 compounds from US8012963B2, “3,4-dihydro-2H-benzo[1,4]oxazine and thiazine derivatives as CETP inhibitors” (Janssen Pharmaceutica N.V., priority 2006, dated 2011).

In the experiment the target is T1, CETP (Homo sapiens, UniProt P11597).
T1 construct: from tissue; host or cells: human plasma from normal volunteers
T1 sequence (P11597 18-493): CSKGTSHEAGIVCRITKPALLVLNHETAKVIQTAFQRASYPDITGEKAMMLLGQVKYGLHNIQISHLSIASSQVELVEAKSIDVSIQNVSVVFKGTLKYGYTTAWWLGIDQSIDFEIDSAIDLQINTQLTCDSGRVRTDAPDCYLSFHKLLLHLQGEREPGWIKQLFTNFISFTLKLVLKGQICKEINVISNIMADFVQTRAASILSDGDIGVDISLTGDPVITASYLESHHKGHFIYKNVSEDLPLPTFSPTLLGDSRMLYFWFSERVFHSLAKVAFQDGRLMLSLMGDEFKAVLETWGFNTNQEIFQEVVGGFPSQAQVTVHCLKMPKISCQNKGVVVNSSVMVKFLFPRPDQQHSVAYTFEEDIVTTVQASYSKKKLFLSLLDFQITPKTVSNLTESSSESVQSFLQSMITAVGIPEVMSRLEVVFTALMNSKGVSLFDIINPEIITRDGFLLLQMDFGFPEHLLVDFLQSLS
In words: CETP in vitro assay ([3H]CE-HDL transfer, Amersham kit TRKQ7005; modified protocol in human plasma). Format: biochemical. The following applies: multiple values = multiple measurements; for inhibition at 1 µM / % Inhibition @ 1 μM: 1 μM compound. The essentials: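 Normal-volunteer human plasma was incubated ≥4 hr at 37 °C with approx. 25 μg/ml [3H]CE-HDL and compound in DMSO, with a 4 °C blank for non-specific transfer. HDL was separated by Dextralip/MgCl2 precipitation and centrifugation, then supernatant radioactivity counted. IC50 came from % control versus concentration.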

Structures are written as SMILES. Where “and” joins values, the source holds several entries; their conditions need not be identical. Identical values can stand only once.

The term inhibition denotes how much of the control response was suppressed. Broadly, the IC50 is the concentration that gives 50% inhibition. Read a low IC50 as higher potency. For the compound `O[C@@H](CN1c2cccc(-c3cc(F)c(F)c(F)c3)c2OC[C@@H]1c1cccc(OC(F)(F)F)c1)C(F)(F)F` [Compound 82, 4H-1,4-Benzoxazine-4-ethanol, 2,3-dihydro-3-[3-(trifluoromethoxy)phenyl]-8-[3,4,5-(trifluoro)phenyl]-α-(trifluoromethyl)-, (3S,αS)—], testing at 1 µM gave an inhibition of 91% and the IC50 came out at 94 nM. Also, the “% Inhibition @ 1 μM” value (1 µM) amounted to 96%.
`COc1ccc(C2COc3c(-c4cccc(OC(F)(F)F)c4)cccc3N2CC(O)C(F)(F)F)s1` (stereo not shown) [Compound 62, 1,1,1-Trifluoro-3-[3-(5-methoxy-thiophen-2-yl)-8-(3-trifluoromethoxy-phenyl)-2,3-dihydro-benzo[1,4]oxazin-4-yl]-propan-2-ol] had an inhibition at 1 µM of 19%.
For the compound `OC(CN1c2cccc(-c3cccc(OC(F)(F)F)c3)c2OCC1c1cccs1)C(F)(F)F` (stereo not shown) [Compound 103, 1,1,1-Trifluoro-3-[3-thiophen-2-yl-8-(3-trifluoromethoxy-phenyl)-2,3-dihydro-benzo[1,4]oxazin-4-yl]-propan-2-ol], the “% Inhibition @ 1 μM” value (1 µM) came out at 20%.
On to `OC(CF)CN1c2cccc(-c3cccc(OC(F)(F)F)c3)c2OC[C@@H]1c1cccc(OC(F)(F)C(F)F)c1` (stereo in doubt) [Compound 75, 4H-1,4-Benzoxazine-4-ethanol, 2,3-dihydro-α-fluoromethyl-3-[3-(1,1,2,2-tetrafluoroethoxy)phenyl]-8-[3-(trifluoromethoxy)phenyl]-, (3S,αS)—], for which at 1 µM the inhibition was 55% and the IC50 was found to be 147 nM.
Compound `O[C@@H](CN1c2cccc(-c3cc(F)cc(F)c3)c2OC[C@@H]1c1cccc(OC(F)(F)C(F)F)c1)C(F)(F)F` [Compound 72, 4H-1,4-Benzoxazine-4-ethanol, 8-(3,5-difluorophenyl)-2,3-dihydro-3-[3-(1,1,2,2-tetrafluoroethoxy)phenyl]-α-(trifluoromethyl)-, (3S,αS)—] yielded an inhibition at 1 µM of 100% and an IC50 of 50 nM.
With `COc1cccc(C2COc3c(-c4cccc(OC(F)(F)F)c4)cccc3N2CC(O)C(F)(F)F)c1` (stereo not shown) [Compound 100, 1,1,1-Trifluoro-3-[3-(3-methoxy-phenyl)-8-(3-trifluoromethoxy-phenyl)-2,3-dihydro-benzo[1,4]oxazin-4-yl]-propan-2-ol], the “% Inhibition @ 1 μM” value (1 µM) is recorded as 6%.
`O=C(CN1c2cccc(-c3cccc(OC(F)(F)F)c3)c2OCC1c1ccc2c(c1)OC(F)(F)O2)C(F)(F)F` (stereo not shown) [Compound 19, 3-[3-(2,2-Difluoro-benzo[1,3]dioxol-5-yl)-8-(3-trifluoromethoxy-phenyl)-2,3-dihydro-benzo[1,4]oxazin-4-yl]-1,1,1-trifluoro-propan-2-one] gave an inhibition at 1 µM of 0%.
For the compound `COc1ccsc1C1COc2c(-c3cccc(OC(F)(F)F)c3)cccc2N1CC(O)C(F)(F)F` (stereo not shown) [Compound 61, 1,1,1-Trifluoro-3-[3-(3-methoxy-thiophen-2-yl)-8-(3-trifluoromethoxy-phenyl)-2,3-dihydro-benzo[1,4]oxazin-4-yl]-propan-2-ol], under “1 µM”, the “% Inhibition @ 1 μM” value is 3%.
Still for that read-out and setting: the value for `OC(CN1c2cccc(-c3cccc(OC(F)(F)F)c3)c2OCC1c1cccc(C(F)(F)F)c1)C(F)(F)F` (stereo not shown) [Compound 70, 1,1,1-Trifluoro-3-[8-(3-trifluoromethoxy-phenyl)-3-(3-trifluoromethyl-phenyl)-2,3-dihydro-benzo[1,4]oxazin-4-yl]propan-2-ol] was 37%.
Turning to `COCCN1c2cccc(-c3cccc(OC(F)(F)F)c3)c2OCC1c1cccc(OC(F)(F)C(F)F)c1` (stereo not shown) [Compound 24, 4-(2-Methoxy-ethyl)-3-[3-(1,1,2,2-tetrafluoro-ethoxy)-phenyl]-8-(3-trifluoromethoxy-phenyl)-3,4-dihydro-2H-benzo[1,4]oxazine], the inhibition at 1 µM stood at 25%.
Take `O[C@@H](CN1c2cccc(-c3cccc(OC(F)(F)F)c3)c2OC[C@@H]1c1cccc(OC(F)(F)F)c1)C(F)(F)F` [Compound 9, 4H-1,4-Benzoxazine-4-ethanol, 2,3-dihydro-3,8-bis[3-(trifluoromethoxy)phenyl]-α-(trifluoromethyl)-, (3S,αS)—]: at 1 µM the inhibition was 68%; the IC50 is 71 nM and 195 nM. In addition, the “% Inhibition @ 1 μM” value (1 µM) was 72% and 67%.
In the case of `O[C@H](CN1c2cccc(-c3cccc(OC(F)(F)F)c3)c2OC[C@H]1c1cccc(OC(F)(F)C(F)F)c1)C(F)(F)F` [Compound 5, 4H-1,4-Benzoxazine-4-ethanol, 2,3-dihydro-3-[3-(1,1,2,2-tetrafluoroethoxy)phenyl]-8-[3-(trifluoromethoxy)phenyl]-α-(trifluoromethyl)-, (3R,αR)—], the inhibition at 1 µM turned out to be 23%.
For the compound `COc1cccc(C2COc3c(-c4cccc(OC(F)(F)F)c4)cccc3N2CC(O)C(F)(F)F)c1` (stereo not shown) [Compound 99, 1,1,1-Trifluoro-3-[3-(3-methoxy-phenyl)-8-(3-trifluoromethoxy-phenyl)-2,3-dihydro-benzo[1,4]oxazin-4-yl]-propan-2-ol], for the setting “1 µM”, the “% Inhibition @ 1 μM” value came to 29%.
With `O[C@@H](CN1c2cccc(-c3cccc(OC(F)(F)F)c3)c2SC[C@@H]1c1cccc(OC(F)(F)C(F)F)c1)C(F)(F)F` [Compound 107], the IC50 was 134 nM and 198 nM. Besides, the “% Inhibition @ 1 μM” value (1 µM) is 59% and 87%.
Compound `OC(CN1c2cccc(-c3cccc(OC(F)(F)F)c3)c2OCC1c1cccc(SC(F)(F)F)c1)C(F)(F)F` (stereo not shown) [Compound 15] registered an IC50 of 360 nM. Besides, where the note is “1 µM”, the “% Inhibition @ 1 μM” value is 67% and 69%.
`CC(C)C(O)CN1c2cccc(-c3cccc(OC(F)(F)F)c3)c2OCC1c1cccc(OC(F)(F)C(F)F)c1` (stereo not shown) [Compound 84, 3-Methyl-1-[3-[3-(1,1,2,2-tetrafluoro-ethoxy)-phenyl]-8-(3-trifluoromethoxy-phenyl)-2,3-dihydro-benzo[1,4]oxazin-4-yl]-butan-2-ol]: the inhibition at 1 µM worked out at 84%; the IC50 was 100 nM and 158 nM. For the same compound, the “% Inhibition @ 1 μM” value (1 µM) came to 87%.
The compound `CC1(C)OC[C@H](CN2c3cccc(-c4cccc(OC(F)(F)F)c4)c3OC[C@@H]2c2cccc(OC(F)(F)C(F)F)c2)O1` [Compound 45, 2H-1,4-Benzoxazine, 4-[[(4S)-2,2-dimethyl-1,3-dioxolan-4-yl]methyl]-3,4-dihydro-3-[3-(1,1,2,2-tetrafluoroethoxy)phenyl]-8-[3-(trifluoromethoxy)phenyl]-, (3S)—] yielded an inhibition at 1 µM of 25%.
Take `OC(CN1c2cccc(-c3cccc(OC(F)(F)F)c3)c2OCC1c1cccc(OC(F)(F)F)c1)C(F)(F)F` (stereo not shown) [Compound 7, 3-[3,8-Bis-(3-trifluoromethoxy-phenyl)-2,3-dihydro-benzo[1,4]oxazin-4-yl]-1,1,1-trifluoro-propan-2-ol]: the IC50 is 104 nM and 110 nM. In addition, the “% Inhibition @ 1 μM” value (1 µM) was 64% and 66%.
As for `OC(CN1c2cccc(-c3cccc(OC(F)(F)F)c3)c2OCC1c1ccco1)C(F)(F)F` (stereo not shown) [Compound 90, 1,1,1-Trifluoro-3-[3-furan-2-yl-8-(3-trifluoromethoxy-phenyl)-2,3-dihydro-benzo[1,4]oxazin-4-yl]-propan-2-ol], the “% Inhibition @ 1 μM” value is given as 17%.
On to `OC[C@@H](O)CN1c2cccc(-c3cccc(OC(F)(F)F)c3)c2OC[C@@H]1c1cccc(OC(F)(F)C(F)F)c1` [Compound 47, 1,2-Propanediol, 3-[(3S)-2,3-dihydro-3-[3-(1,1,2,2-tetrafluoroethoxy)phenyl]-8-[3-(trifluoromethoxy)phenyl]-4H-1,4-benzoxazin-4-yl]-, (2S)—], for which the inhibition at 1 µM came out at 27%.
Compound `CC1(C)OC[C@H](CN2c3cccc(-c4cccc(OC(F)(F)F)c4)c3OC[C@H]2c2cccc(OC(F)(F)C(F)F)c2)O1` [Compound 46, 2H-1,4-Benzoxazine, 4-[[(4S)-2,2-dimethyl-1,3-dioxolan-4-yl]methyl]-3,4-dihydro-3-[3-(1,1,2,2-tetrafluoroethoxy)phenyl]-8-[3-(trifluoromethoxy)phenyl]-, (3R)—] registered an inhibition at 1 µM of 20%.
Regarding `OCCCC1COc2c(-c3cccc(OC(F)(F)F)c3)cccc2N1CC(O)C(F)(F)F` (stereo not shown) [Compound 52, 3-[4-(3,3,3-Trifluoro-2-hydroxy-propyl)-8-(3-trifluoromethoxy-phenyl)-3,4-dihydro-2H-benzo[1,4]oxazin-3-yl]-propan-1-ol], the “% Inhibition @ 1 μM” value (1 µM) is reported as 13%.
On the same count and under the same terms, to `OC(CN1c2cccc(-c3cccc(OC(F)(F)F)c3)c2OCC1c1cccc(C(F)(F)F)c1)C(F)(F)F` (stereo not shown) [Compound 71, 1,1,1-Trifluoro-3-[8-(3-trifluoromethoxy-phenyl)-3-(3-trifluoromethyl-phenyl)-2,3-dihydro-benzo[1,4]oxazin-4-yl]-propan-2-ol] belongs 2%.
Take `O[C@H](CN1c2cccc(-c3cc(F)cc(F)c3)c2OC[C@@H]1c1cccc(OC(F)(F)C(F)F)c1)C(F)(F)F` [Compound 73, 4H-1,4-Benzoxazine-4-ethanol, 8-(3,5-difluorophenyl)-2,3-dihydro-3-[3-(1,1,2,2-tetrafluoroethoxy)phenyl]-α-(trifluoromethyl)-, (3S,αR)—]: the inhibition at 1 µM worked out at 76% and half-maximal inhibition (IC50) was put at 460 nM.
Consider `CCOc1cccc(C2COc3c(-c4cccc(OC(F)(F)F)c4)cccc3N2CC(O)C(F)(F)F)c1` (stereo not shown) [Compound 18], for which the “% Inhibition @ 1 μM” value (1 µM) is 8%.
